Results from patent US20210069198A1 (HANYI BIO-TECHNOLOGY (BEIJING) CO., LTD., priority 2017, published 2021).

System: rat anxiety behavior induced by high-dose intake of caffeine
Assay: Elevated plus-maze test, Test 1: CBD against caffeine-induced anxiety behavior
Assay type: in vivo, wistar rats
Description: Test Animals: 50 SPF male wistar rats (180-200 g). Feeding Conditions: SPF animal houses, free feeding, 12 h light/12 h darkness.
Each CBD administration group was also intragastrically administrated with a corresponding dose of a CBD soybean oil solution at the same time, and then an elevated plus-maze test was conducted within 30 minutes after administration.
Elevated Plus-maze (EMP) Test: A maze was cross-shaped and consists of 2 open arms (OAs), two closed arms (CAs) and a central platform. The maze was fixed on a support, 50 cm above the ground. A camera was placed above the central platform. The behaviors of rats were recorded and analyzed through a computer. The test was conducted in a quiet shaded condition. Before the test, the rats to be tested were placed in one rat cage. After freely exploring for 5 minutes, the rats were quickly placed on the central platform of the EMP. The observation test was started immediately after release. Each rat was tested for five minutes. After each rat was tested, the maze was thoroughly cleaned with a towel dipped in clean water and low-concentration ethanol. After the ethanol volatilizes and diffuses, the test on the next rat began.
(1) Open arm entry (OE): the number of entries into any open arm was based on the fact that four paws of each rat were located within the arms, and when any paw was completely withdrawn from the arms halfway, the current entry event was deemed as being completed.
(2) Open arm time (OT): it was measured in second.
(3) Closed arm entry (CE): the number of entries into any closed arm, which was determined based on the same standard as OE.
(4) Closed arm time (CT): it was measured in second.
(5) Calculation of the proportion of the number of entries into the open arm (OE %): namely, OE/(OE+CE)×100%.
(6) Proportion of residence time in the open arms (OT %): namely, OT/(OT+CT)×100%. OE % and OT % were used as indexes for evaluating the anxiety state of rats.
The data was expressed with x±s. One-way analysis of variance (one way ANOVA) was used to compare multi-sample means, and t test was used for inter-group comparison.

[1] = CBD 1 mg/kg intragastric together with 60 mg/kg caffeine
[2] = CBD 10 mg/kg intragastric together with 60 mg/kg caffeine
[3] = CBD 100 mg/kg intragastric together with 60 mg/kg caffeine
[4] = caffeine model group, 60 mg/kg caffeine intragastric, no CBD

SMILES: C=C(C)[C@@H]1CCC(C)=C[C@H]1c1c(O)cc(CCCCC)cc1O [CBD, Cannabidiol]
- OE (open arm entry) (CBD 1 mg/kg in soybean oil intragastric together with 60 mg/kg caffeine): 3.2 ± 0.45 times
- CE (closed arm entry) [1]: 7.0 ± 0.92 times
- CT (closed arm time) [1]: 244 ± 5.14 s
- OE % (proportion of entries into the open arm) [1]: 31.37%
- OT % (proportion of residence time in the open arms) [1]: 19.24%
- OT (open arm time) [1]: 58.1 ± 3.30 s
- CE (closed arm entry) [2]: 5.3 ± 1.07 times
- CT (closed arm time) [2]: 214 ± 4.01 s
- OE % (proportion of entries into the open arm) [2]: 47.52%
- OE (open arm entry) [2]: 4.8 ± 0.91 times
- OT % (proportion of residence time in the open arms) [2]: 28.43%
- OT (open arm time) [2]: 85 ± 2.07 s
- CE (closed arm entry) [3]: 4.5 ± 0.91 times
- CT (closed arm time) [3]: 201 ± 3.05 s
- OE % (proportion of entries into the open arm) [3]: 54.00%
- OE (open arm entry) [3]: 5.4 ± 0.25 times
- OT % (proportion of residence time in the open arms) [3]: 33.22%
- OT (open arm time) [3]: 100 ± 1.32 s
- effect on the anxiety behavior of rats (in words) (CBD 1-100 mg/kg intragastric together with 60 mg/kg caffeine): significant effect on inhibiting the anxiety behavior

SMILES: Cn1c(=O)c2c(ncn2C)n(C)c1=O [Caffeine]
- CE (closed arm entry) [4]: 7.8 ± 0.11 times
- CT (closed arm time) [4]: 253 ± 5.09 s
- OE % (proportion of entries into the open arm) [4]: 21.21%
- OT (open arm time) [4]: 42.9 ± 1.89 s
- OE (open arm entry) (caffeine model group, 60 mg/kg caffeine saline solution intragastric, no CBD, EPM within 30 min, 5 min test): 2.1 ± 0.78 times
